From ChEMBL document CHEMBL1255452, “Skin concentrations and pharmacokinetics of posaconazole after oral administration” (Antimicrob Agents Chemother, 2010) come the findings set out here.

Data set [1] in a line: Ratio of AUC in skin to plasma in healthy human at 400 mg, po bid after 8 days. The following applies: skin and plasma. In kind it is ADME, organism-based, Skin of body.
The nature of data set [2]: Tmax in high fat fed healthy human skin at 400 mg, po bid after 8 days. In kind it is ADME, organism-based, Zone of skin.
The nature of data set [3]: Cmax in high fat fed healthy human plasma at 400 mg, po bid after 8 days. In kind it is ADME, organism-based. Set-up: dose 400 mg, route oral.
In data set [4] the test system is Homo sapiens. In words: Toxicity in healthy human assessed as treatment related treatment-emergent adverse events at 400 mg, po bid after 8 days. The note with it: in vivo, 192 h. In kind it is organism-based.
The nature of data set [5]: AUC (0 to 24 hrs) in high fat fed healthy human plasma measured per ml of plasma at 400 mg, po bid after 8 days. The class given is ADME, organism-based. Details: time < 24 hr, dose 400 mg, route oral.
Data set [6] in a line: AUC (0 to 24 hrs) in high fat fed healthy human plasma measured per ml of plasma at 400 mg, po bid after 1 day. In kind it is ADME, organism-based. Set-up: time < 24 hr, dose 400 mg, route oral.
A short description of data set [7]: Tmax in high fat fed healthy human skin at 400 mg, po bid after 1 day. The class given is ADME, organism-based, Zone of skin.
Data set [8] is described as follows: T>MIC90 in fungus infected patient skin at 400 mg, po bid after 1 day. In kind it is functional.
The subject of data set [9] is Zone of skin. In words: AUC (0 to 12 hrs) in high fat fed healthy human skin measured per gram of tissue at 400 mg, po bid after 1 day. In kind it is ADME, organism-based. Details: dose 400 mg, time < 12 hr, route oral. The following applies: in vivo.
Data set [10] deals with Zone of skin. The experiment in a line: AUC (0 to 12 hrs) in high fat fed healthy human skin measured per gram of tissue at 400 mg, po bid after 8 days. The class given is ADME, organism-based. Details: time < 12 hr, dose 400 mg, route oral. The note with it: in vivo.
Data set [11] can be described thus: T>MIC90 in fungus infected patient plasma at 400 mg, po bid after 1 day. In kind it is functional.
Data set [12] deals with Zone of skin. The experiment in a line: AUC (0 to 24 hrs) in high fat fed healthy human skin measured per gram of tissue at 400 mg, po bid after 1 day. The following applies: in vivo. Set-up: dose 400 mg, time < 24 hr, route oral. In kind it is ADME, organism-based.
The nature of data set [13]: AUC (0 to 12 hrs) in high fat fed healthy human plasma measured per ml of plasma at 400 mg, po bid after 8 days. The class given is ADME, organism-based. Set-up: dose 400 mg, time < 12 hr, route oral.
Data set [14] deals with Zone of skin. The experiment in a line: AUC (0 to 24 hrs) in high fat fed healthy human skin measured per gram of tissue at 400 mg, po bid after 8 days. In kind it is ADME, organism-based. Details: dose 400 mg, time < 24 hr, route oral. The note with it: in vivo.
The test system of data set [15] is Homo sapiens. The experiment in a line: Toxicity in healthy human assessed as treatment-emergent adverse events at 400 mg, po bid after 8 days. The class given is organism-based. The following applies: in vivo, 192 h.
The nature of data set [16]: T>MIC90 in fungus infected patient skin at 400 mg, po bid after 8 days. In kind it is functional.
Data set [17] is described as follows: AUC (0 to 12 hrs) in high fat fed healthy human plasma measured per ml of plasma at 400 mg, po bid after 1 day. The class given is ADME, organism-based. Set-up: dose 400 mg, time < 12 hr, route oral.
A short description of data set [18]: Tmax in high fat fed healthy human plasma at 400 mg, po bid after 1 day. The class given is ADME, organism-based.
A short description of data set [19]: Cmax in high fat fed healthy human skin at 400 mg, po bid after 8 days. Set-up: dose 400 mg, route oral. The class given is ADME, organism-based, Zone of skin.
Data set [20] is described as follows: T>MIC90 in fungus infected patient plasma at 400 mg, po bid after 8 days. The class given is functional.
The nature of data set [21]: Cmax in high fat fed healthy human skin at 400 mg, po bid after 1 day. The class given is ADME, organism-based, Zone of skin. Details: dose 400 mg, route oral.
Data set [22] in a line: Cmax in high fat fed healthy human plasma at 400 mg, po bid after 1 day. The class given is ADME, organism-based. Set-up: dose 400 mg, route oral.

A word on the Kp: it is the ratio of the level in a tissue or fluid to that in plasma or blood. By Tmax is commonly meant the time at which the peak concentration occurs. What is called Cmax is the peak of the concentration-time curve. Consider `CC[C@@H]([C@H](C)O)n1ncn(-c2ccc(N3CCN(c4ccc(OC[C@@H]5CO[C@@](Cn6cncn6)(c6ccc(F)cc6F)C5)cc4)CC3)cc2)c1=O` [POSACONAZOLE], for which the Kp at 192 h in [1] turned out to be 1.26. Moreover, the figures for the Tmax in data set [2], in data set [7] and in data set [18] were 3 h, 12 h and 8 h, respectively. The Cmax in data set [3] turned out to be 1740 ng/mL; in data set [19], 2610 ng/g; in data set [21] it was 328 ng/g; in data set [22], 453 ng/mL. For the same compound, the Activity was determined as 37% with Homo sapiens [4] and 57% in the data set with Homo sapiens [15]. Also, the figures for the AUC at 24 h in [5] and in [6] were 37200 ng·h/mL and 7260 ng·h/mL, respectively. The “T>MIC90” value in [8] was determined as 2.24 h; in [11] it was 8.13 h; in data set [16], 12 h; in data set [20], 12 h. Moreover, the AUC is 1760 ng·h/g with Zone of skin [9], 23400 ng·h/g in the data set with Zone of skin [10], 3520 ng·h/g with Zone of skin [12] and 46800 ng·h/g with Zone of skin [14]. The AUC at 12 h in [13] came out at 18600 ng·h/mL; in [17] it was 3630 ng·h/mL.
